This passage reports inhibition and IC50 results from US20100256357A1, “HETEROCYCLES USEFUL AS INHIBITORS OF CARBONIC ANHYDRASE” (Agouron Pharmaceuticals, Inc., priority 2006, published 2010).

In assay [1] the target is T1, human CA-II (Homo sapiens, UniProt P00918).
T1 construct: purchased Sigma-Aldrich C6165
Put plainly: Carbonic Anhydrase-II (CA-II) Fluorimetric Assay-IC50 Determination. The class given is biochemical. To be noted: for IC50: Kd ND, read-out: CA-II IC50. The method, then:
Carbonic Anhydrase-II (CA-II) Fluorimetric Assay-IC50 Determination
Compounds were diluted in DMSO at the concentration of 1 mM, then 50 μM and transferred to a 96-well plate for further dilutions (1:3 dilution, 11 points) in duplicate. Highest final concentration of compound in this CA-II Fluorimetric assay is 1 μM. Assays were conducted in a final volume of 100 μL in 50 mM Tris/HCl (pH 7.6), 100 mM Na2SO4 and 0.005% Tween-20 in a 96-well black assay plate. Fluorescein diacetate was used as the substrate. Enzyme inhibition was determined by pipetting 8 μL of human CA-II (5 nM, from Sigma-Aldrich, product #: C6165) into assay plate contained 2 μL of compound and 2 μL of substrate (10 μM) in 88 μL of assay buffer. The rate of the hydrolysis of fluorescein diacetate were measured spectrophometrically at 488 nm (excitation), 538 nm (emission) and 530 nm (cutoff) using a Molecular Devices SpectraMax M2 fluorescence reader at 25° C.

The target of another assay is T2, human CA-IV (Homo sapiens, UniProt P22748).
T2 construct: made in house; host or cells: Escherichia coli BL21(DE3)
T2 sequence (P22748 19-284 limits assumed): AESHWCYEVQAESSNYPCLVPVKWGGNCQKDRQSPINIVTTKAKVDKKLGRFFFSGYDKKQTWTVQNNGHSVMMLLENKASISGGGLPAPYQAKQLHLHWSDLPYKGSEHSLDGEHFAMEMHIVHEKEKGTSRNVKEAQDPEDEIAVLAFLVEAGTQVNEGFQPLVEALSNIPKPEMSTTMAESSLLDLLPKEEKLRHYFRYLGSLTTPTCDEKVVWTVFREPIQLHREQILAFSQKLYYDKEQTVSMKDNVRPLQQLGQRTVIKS
Kind of assay: Carbonic Anhydrase-IV (CA-IV) Fluorescence Polarization Assay-IC50 Determination. The class given is binding. To be noted: for inhibition at 0.2 µM: CA-IV Min dose 200 nM, read-out: CA-IV: % Inh @ Min dose. The method, then: Carbonic Anhydrase-IV (CA-IV) Fluorescence Polarization Assay-IC50 Determination
These cells were grown in Luria broth (LB) media (Biomyx) supplemented with 800 uM ZnCl2 at 37° C. until an O.D.600 of 0.7, at which point the cells were induced with 100 uM isopropyl-beta-D-thiogalactopyranoside (IPTG) for 20 hours at 20° C. The frozen pellet was resuspended in 50mM 2-morpholinoethanesulfonic acid (MES) at pH 6.0, 100 mM NaCl, 800 uM ZnCl2 and EDTA-Free protease inhibitors (Roche). The cells were lysed with a microfluidizer, the lysate was spun at 40,000 rpm for 45 minutes at 4° C., and the soluble fraction was dialyzed overnight at 4° C. in 50 mM MES pH 6.0, and 100 mM NaCl. The soluble fraction was then put over a 100 ml SP-Sepharose High Performance (GE Healthcare) column and eluted with a 50 mM MES pH 6.0, 750 mM NaCl gradient. The peak fractions were then concentrated, via an Amicon Ultra-4 10,000 MWCO (Millipore) spin column to 2.0 mL and loaded onto a Sephacryl S-100 High Resolution (GE Healthcare) column in 25 mM tris(hydroxymethyl)aminomethane hydrochloride (Tris-HCl) pH 7.0, and 100 mM NaCl. The peak fractions were then concentrated, via an Amicon Ultra-4 10,000 MWCO (Millipore) spin column, to 7.0 mg/mL and left exposed at room temperature overnight. […] T.; et al. Carbonic Anhydrase Inhibitors. Med. Res. Rev. […]
Assays were conducted in a final volume of 100 μL in 50 mM Tris/HCl (pH 7.6), 100 mM Na2SO4 and 0.005% Tween-20 in a 96-well black assay plate.
Background: Fluorescence polarisation rises when a labelled molecule tumbles more slowly, as on binding a larger partner.

For assay [2], the target named is T1, human CA-II. Put plainly: Carbonic Anhydrase-II (CA-II) Fluorescence Polarization Tight Binding Assay-Kd Determination. To be noted: inhibitor concentration 2.5 nM. The method, then: Assays were conducted in a final volume of 100 μL in 50 mM Tris/HCl (pH 7.6), 100 mM Na2SO4 and 0.005% Tween-20 in a 96-well black assay plate. […] The assay plate was
The Kd binding was calculated using GraphPad Prism and Morrison tight binding ligand equation.

Setting [3] is: CA II Min dose 100 nM, read-out: CAII % Inh @ Min dose.

Like-named read-outs stand apart in the source and are kept apart here.

Turning to `NS(=O)(=O)c1ccc(-n2nc(C(=O)N3CC(Oc4ccccc4)C3)nc2Cc2ccccc2)cc1` [Example R-15, 4-(5-benzyl-3-[(3-phenoxyazetidin-1-yl)carbonyl]-1H-124-triazol-1-yl)benzenesulfonamide], the inhibition at 0.1 µM on human CA-II [1] (setting [3]) and at human CA-II [1] (read-out: CA-II % at 100 nM) was 96% each time. The inhibition at 0.2 µM on human CA-IV came out at 60.9%. For the same compound, on human CA-IV (read-out: CA-IV IC50), the IC50 was found to be 220 nM.

Consider `CCC(COC)NCc1nc(Cc2ccccc2)n(-c2ccc(S(N)(=O)=O)cc2F)n1` (stereo not shown) [Example T-70, 4-[5-benzyl-3-({[1-(methoxymethyl)propyl]amino}methyl)-1H-124-triazol-1-yl]-3-fluorobenzenesulfonamide], for which, on human CA-II [2], the inhibition at 0.0025 µM was 89%.

In the case of `NS(=O)(=O)c1ccc(-n2nc(CNCc3ccc(F)cc3)nc2Cc2ccccc2)c(F)c1` [Example T-56, 4-(5-benzyl-3-{[(4-fluorobenzyl)amino]methyl}-1H-124-triazol-1-yl)-3-fluorobenzenesulfonamide], the inhibition at 0.0025 µM on human CA-II [2] turned out to be 50%.

As to `NS(=O)(=O)c1ccc(-n2nc(C(=O)NCC3(c4ccccc4)CC3)nc2Cc2ccccc2)cc1` [Example R-12, 1-[4-(aminosulfonyl)phenyl]-5-benzyl-N-[(1-phenylcyclopropyl)methyl]-1H-124-triazole-3-carboxamide], the inhibition at 0.1 µM at human CA-II [1] (setting [3]) and at human CA-II [1] (read-out: CA-II % at 100 nM) was 101% in each case. Also, the inhibition at 0.2 µM at human CA-IV was found to be 62.3%. Also, the IC50 on human CA-IV (read-out: CA-IV IC50) amounted to 206 nM.

In the case of `COC[C@H](C)NCc1nc(Cc2ccccc2)n(-c2ccc(S(N)(=O)=O)cc2F)n1` [Example T-80, 4-[5-benzyl-3-({[(1S)-2-methoxy-1-methylethyl]amino}methyl)-1H-124-triazol-1-yl]-3-fluorobenzenesulfonamide], the inhibition at 0.0025 µM on human CA-II [2] was determined as 73%.

As to `NS(=O)(=O)c1ccc(-n2nc(CNC3Cc4ccccc4C3)nc2Cc2ccccc2)c(F)c1` [Example T-76, 4-{5-benzyl-3-[(23-dihydro-1H-inden-2-ylamino)methyl]-1H-124-triazol-1-yl}-3-fluorobenzenesulfonamide], at human CA-II [2], the inhibition at 0.0025 µM was 41%.

As for `CC(=O)N1CCCN(C(=O)c2nc(Cc3ccccc3)n(-c3ccc(S(N)(=O)=O)cc3)n2)CC1` [Example R-18, 4-(3-[(4-acetyl-14-diazepan-1-yl)carbonyl]-5-benzyl-1H-124-triazol-1-yl)benzenesulfonamide], the inhibition at 0.1 µM at human CA-II [1] (setting [3]) is 96%; on human CA-II [1] (read-out: CA-II % at 100 nM), 98%. Besides, the inhibition at 0.2 µM on human CA-IV stood at 56.9%. For the same compound, at human CA-IV (read-out: CA-IV IC50), the IC50 came to 274 nM.

Take `NS(=O)(=O)c1ccc(-n2nc(C(=O)N3CCCCC3)nc2Cc2ccccc2)cc1` [Example R-24, 4-[5-benzyl-3-(piperidin-1-ylcarbonyl)-1H-124-triazol-1-yl]benzenesulfonamide]: on human CA-II [1] (setting [3]), the inhibition at 0.1 µM worked out at 99%. The IC50 is 3.73 nM at human CA-II [1] and 360 nM at human CA-IV (read-out: CA-IV IC50). Further, the inhibition at 0.2 µM on human CA-IV was found to be 48.6%.

Regarding `NS(=O)(=O)c1ccc(-n2nc(C(=O)N3CC4CCC3C4)nc2Cc2ccccc2)cc1` (stereo not shown) [Example R-8, 4-[3-(2-azabicyclo[2.2.1]hept-2-ylcarbonyl)-5-benzyl-1H-124-triazol-1-yl]benzenesulfonamide], the inhibition at 0.1 µM on human CA-II [1] (setting [3]) and on human CA-II [1] (read-out: CA-II % at 100 nM) was 99% throughout. In addition, the inhibition at 0.2 µM on human CA-IV came out at 56.9%. Further, the IC50 at human CA-IV (read-out: CA-IV IC50) was determined as 194 nM.

For the compound `CCN(CCCCO)C(=O)c1nc(Cc2ccccc2)n(-c2ccc(S(N)(=O)=O)cc2)n1` [Example R-19, 1-[4-(aminosulfonyl)phenyl)-5-benzyl-N-ethyl-N-(4-hydroxybutyl)-1H-124-triazole-3-carboxamide], the inhibition at 0.1 µM at human CA-II [1] (setting [3]) was determined as 99%. Besides, the values for the IC50 on human CA-II [1] and at human CA-IV (read-out: CA-IV IC50) were 3.55 nM and 306 nM, respectively. The inhibition at 0.2 µM on human CA-IV came out at 50.2%.

For `CCCCN(CC)C(=O)c1nc(Cc2ccccc2)n(-c2ccc(S(N)(=O)=O)cc2)n1` [Example R-14, 1-(4-(aminosulfonyl)phenyl]-5-benzyl-N-butyl-N-ethyl-1H-124-triazole-3-carboxamide], the inhibition at 0.1 µM on human CA-II [1] (setting [3]) and on human CA-II [1] (read-out: CA-II % at 100 nM) was 100% throughout. Also, the inhibition at 0.2 µM at human CA-IV came out at 59.7%. Also, on human CA-IV (read-out: CA-IV IC50), the IC50 came to 215 nM.

Regarding `NS(=O)(=O)c1ccc(-n2nc(C(=O)N3CCOc4ccccc4C3)nc2Cc2ccccc2)cc1` [Example R-7, 4-[5-benzyl-3-(23-dihydro-14-benzoxazepin-4(5H)-ylcarbonyl)-1H-124-triazol-1-yl]benzenesulfonamide], the inhibition at 0.1 µM at human CA-II [1] (setting [3]) is 101%. Besides, the IC50 at human CA-II [1] stood at 3.68 nM; on human CA-IV (read-out: CA-IV IC50), 182 nM. Besides, the inhibition at 0.2 µM on human CA-IV came out at 59.1%.

Regarding `CN(C(=O)c1nc(Cc2ccccc2)n(-c2ccc(S(N)(=O)=O)cc2)n1)C1CCCCC1` [Example R-25, 1-[4-(aminosulfonyl)phenyl]-5-benzyl-N-cyclohexyl-N-methyl-1H-124-triazole-3-carboxamide], on human CA-II [1] (setting [3]), the inhibition at 0.1 µM was determined as 101%. Besides, the IC50 at human CA-II [1] was 2.51 nM; on human CA-IV (read-out: CA-IV IC50), 385 nM. Moreover, the inhibition at 0.2 µM at human CA-IV came out at 69.3%.

Consider `CCCN(CC1CC1)C(=O)c1nc(Cc2ccccc2)n(-c2ccc(S(N)(=O)=O)cc2)n1` [Example R-5, 1-[4-(aminosulfonyl)phenyl]-5-benzyl-N-(cyclopropylmethyl)-N-propyl-1H-124-triazole-3-carboxamide], for which the inhibition at 0.1 µM at human CA-II [1] (setting [3]) is 100%. For the same compound, the IC50 turned out to be 2.18 nM on human CA-II [1] and 167 nM on human CA-IV (read-out: CA-IV IC50). Besides, the inhibition at 0.2 µM at human CA-IV stood at 66.4%.

For the compound `CCCCCN(CCO)C(=O)c1nc(Cc2ccccc2)n(-c2ccc(S(N)(=O)=O)cc2)n1` [Example R-16, 1-[4-(aminosulfonyl)phenyl]-5-benzyl-N-(2-hydroxyethyl)-N-pentyl-1H-124-triazole-3-carboxamide], the inhibition at 0.1 µM on human CA-II [1] (setting [3]) and on human CA-II [1] (read-out: CA-II % at 100 nM) was 100% in each case. The inhibition at 0.2 µM on human CA-IV stood at 61.3%. Besides, the IC50 at human CA-IV (read-out: CA-IV IC50) stood at 220 nM.

Take `CN(CCC#N)C(=O)c1nc(Cc2ccccc2)n(-c2ccc(S(N)(=O)=O)cc2)n1` [Example R-10]: the inhibition at 0.1 µM on human CA-II [1] (setting [3]) and on human CA-II [1] (read-out: CA-II % at 100 nM) was 99% each time. Moreover, the inhibition at 0.2 µM on human CA-IV came to 58%. The IC50 at human CA-IV (read-out: CA-IV IC50) turned out to be 202 nM.

For `NS(=O)(=O)c1ccc(-n2nc(C(=O)N3CCc4ccccc4CC3)nc2Cc2ccccc2)cc1` [Example R-4, 4-[5-benzyl-3-(1245-tetrahydro-3H-3-benzoazepin-3-ylcarbonyl)-1H-124-triazol-1-yl]benzenesulfonamide], the inhibition at 0.1 µM at human CA-II [1] (setting [3]) worked out at 100%. In addition, the figures for the IC50 on human CA-II [1] and at human CA-IV (read-out: CA-IV IC50) were 3.4 nM and 115 nM, respectively. At human CA-IV, the inhibition at 0.2 µM came out at 74.3%.

As for `CN(CC(O)c1ccccc1)C(=O)c1nc(Cc2ccccc2)n(-c2ccc(S(N)(=O)=O)cc2)n1` (stereo not shown) [Example R-9, 1-[4-(aminosulfonyl)phenyl]-5-benzyl-N-(2-hydroxy-2-phenylethyl)-N-methyl-1H-124-triazole-3-carboxamide], the inhibition at 0.1 µM on human CA-II [1] (setting [3]) and at human CA-II [1] (read-out: CA-II % at 100 nM) was 99% in each case. Further, the inhibition at 0.2 µM on human CA-IV turned out to be 58%. Also, the IC50 on human CA-IV (read-out: CA-IV IC50) is 198 nM.

Consider `C[C@@H]1CN(Cc2cc(Cc3ccccc3)n(-c3ccc(S(N)(=O)=O)cc3F)n2)C[C@H](C)O1` [QQ-1i, 4-(5-benzyl-3-{[(2R,6S)-2,6-dimethylmorpholin-4-yl]methyl}-1H-pyrazol-1-yl)-3-fluorobenzenesulfonamide], for which the IC50 on human CA-IV (read-out: IC50_CAIV) came to 480 nM.
